In ChEMBL document CHEMBL5291721, “A preclinical secondary pharmacology resource illuminates target-adverse drug reaction associations of marketed drugs” (Nat Commun, 2023):

What was measured:
[1] = target: T1, Amine oxidase [flavin-containing] A (Homo sapiens, UniProt P21397); assay type: functional
T1 sequence (P21397 whole entry): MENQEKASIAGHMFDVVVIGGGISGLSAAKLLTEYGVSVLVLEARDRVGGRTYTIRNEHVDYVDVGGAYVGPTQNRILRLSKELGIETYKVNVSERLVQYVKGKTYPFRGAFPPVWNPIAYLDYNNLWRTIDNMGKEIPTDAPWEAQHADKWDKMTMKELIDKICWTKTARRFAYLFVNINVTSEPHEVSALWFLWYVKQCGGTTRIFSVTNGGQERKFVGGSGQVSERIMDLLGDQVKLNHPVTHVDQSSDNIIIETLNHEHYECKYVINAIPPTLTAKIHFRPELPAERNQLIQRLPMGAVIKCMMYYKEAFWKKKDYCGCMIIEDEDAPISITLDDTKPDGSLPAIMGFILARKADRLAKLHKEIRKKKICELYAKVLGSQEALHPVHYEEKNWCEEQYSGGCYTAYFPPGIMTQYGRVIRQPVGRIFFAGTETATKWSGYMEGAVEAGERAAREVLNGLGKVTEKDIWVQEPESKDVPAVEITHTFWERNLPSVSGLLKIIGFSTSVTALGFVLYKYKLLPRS

[2] = target: Kappa-type opioid receptor (Homo sapiens, UniProt P41145)
Sequence of Kappa-type opioid receptor (P41145 whole entry): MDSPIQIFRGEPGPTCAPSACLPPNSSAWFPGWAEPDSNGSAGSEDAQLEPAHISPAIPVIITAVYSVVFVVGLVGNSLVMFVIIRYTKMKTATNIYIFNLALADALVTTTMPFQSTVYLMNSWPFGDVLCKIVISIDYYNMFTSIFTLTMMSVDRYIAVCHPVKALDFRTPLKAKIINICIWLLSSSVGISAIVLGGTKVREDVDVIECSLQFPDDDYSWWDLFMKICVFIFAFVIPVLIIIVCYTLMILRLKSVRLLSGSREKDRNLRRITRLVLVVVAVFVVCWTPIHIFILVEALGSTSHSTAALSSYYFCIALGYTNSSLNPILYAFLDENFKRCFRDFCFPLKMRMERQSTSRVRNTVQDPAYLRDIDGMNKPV

D(1A) dopamine receptor [3] = target: T2, D(1A) dopamine receptor (Homo sapiens, UniProt P21728); assay type: functional, cell-based
T2 sequence (P21728 whole entry): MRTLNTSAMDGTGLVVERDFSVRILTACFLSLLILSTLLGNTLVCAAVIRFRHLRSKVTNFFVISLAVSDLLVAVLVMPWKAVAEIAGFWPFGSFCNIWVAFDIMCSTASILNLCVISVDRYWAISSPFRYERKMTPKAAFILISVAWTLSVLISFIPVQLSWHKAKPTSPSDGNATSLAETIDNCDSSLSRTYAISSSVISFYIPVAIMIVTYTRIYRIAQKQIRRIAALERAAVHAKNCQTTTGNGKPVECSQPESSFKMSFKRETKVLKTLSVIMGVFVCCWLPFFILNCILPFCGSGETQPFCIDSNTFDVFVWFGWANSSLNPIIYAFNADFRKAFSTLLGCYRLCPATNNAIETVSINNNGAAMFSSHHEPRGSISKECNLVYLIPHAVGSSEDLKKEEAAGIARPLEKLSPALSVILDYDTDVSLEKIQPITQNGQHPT

Histamine H1 receptor = Histamine H1 receptor (Homo sapiens, UniProt P35367)
Sequence of Histamine H1 receptor (P35367 whole entry): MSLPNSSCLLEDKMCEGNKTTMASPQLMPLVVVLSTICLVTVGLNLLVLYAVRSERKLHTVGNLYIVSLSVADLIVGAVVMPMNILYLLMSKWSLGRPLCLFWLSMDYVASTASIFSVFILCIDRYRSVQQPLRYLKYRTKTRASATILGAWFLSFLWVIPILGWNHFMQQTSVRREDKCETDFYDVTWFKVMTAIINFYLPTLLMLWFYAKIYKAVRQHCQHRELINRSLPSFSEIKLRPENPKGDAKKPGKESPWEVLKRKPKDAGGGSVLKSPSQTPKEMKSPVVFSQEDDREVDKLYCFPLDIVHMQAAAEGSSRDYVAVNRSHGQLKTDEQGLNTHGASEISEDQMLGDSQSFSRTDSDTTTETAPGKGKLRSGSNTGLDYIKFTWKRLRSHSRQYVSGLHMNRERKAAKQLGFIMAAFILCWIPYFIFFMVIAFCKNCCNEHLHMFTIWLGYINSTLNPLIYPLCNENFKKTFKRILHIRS

[4] = target: T3, Muscarinic acetylcholine receptor M2 (Homo sapiens, UniProt P08172); assay type: functional, cell-based
T3 sequence (P08172 whole entry): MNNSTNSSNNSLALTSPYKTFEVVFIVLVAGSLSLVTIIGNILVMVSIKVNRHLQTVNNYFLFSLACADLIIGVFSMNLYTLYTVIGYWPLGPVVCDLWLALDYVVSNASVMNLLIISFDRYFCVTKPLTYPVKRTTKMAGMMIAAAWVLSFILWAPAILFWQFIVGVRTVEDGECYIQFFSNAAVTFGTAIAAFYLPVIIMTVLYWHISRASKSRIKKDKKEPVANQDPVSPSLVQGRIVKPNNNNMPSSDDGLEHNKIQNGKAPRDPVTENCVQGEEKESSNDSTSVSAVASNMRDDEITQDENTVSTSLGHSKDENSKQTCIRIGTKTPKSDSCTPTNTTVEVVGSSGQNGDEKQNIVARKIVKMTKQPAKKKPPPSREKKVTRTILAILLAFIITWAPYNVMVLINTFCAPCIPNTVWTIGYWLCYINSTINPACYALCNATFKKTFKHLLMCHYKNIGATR

[5] = target: T4, 5-hydroxytryptamine receptor 2C (Homo sapiens, UniProt P28335)
T4 sequence (P28335 whole entry): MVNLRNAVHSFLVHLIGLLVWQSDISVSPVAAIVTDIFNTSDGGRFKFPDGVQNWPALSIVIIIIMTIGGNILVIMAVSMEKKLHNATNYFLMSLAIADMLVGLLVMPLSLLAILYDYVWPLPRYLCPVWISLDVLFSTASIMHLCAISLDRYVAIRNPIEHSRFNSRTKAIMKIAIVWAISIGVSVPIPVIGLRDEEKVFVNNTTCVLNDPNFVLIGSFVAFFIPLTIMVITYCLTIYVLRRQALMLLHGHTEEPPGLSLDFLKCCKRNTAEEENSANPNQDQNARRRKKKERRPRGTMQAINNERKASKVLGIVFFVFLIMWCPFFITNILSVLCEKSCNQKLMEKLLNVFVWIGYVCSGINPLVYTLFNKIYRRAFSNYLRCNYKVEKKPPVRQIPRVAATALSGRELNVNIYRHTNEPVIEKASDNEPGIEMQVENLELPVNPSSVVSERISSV

[6] = target: Beta-1 adrenergic receptor (Homo sapiens, UniProt P08588); assay type: functional
Sequence of Beta-1 adrenergic receptor (P08588 whole entry): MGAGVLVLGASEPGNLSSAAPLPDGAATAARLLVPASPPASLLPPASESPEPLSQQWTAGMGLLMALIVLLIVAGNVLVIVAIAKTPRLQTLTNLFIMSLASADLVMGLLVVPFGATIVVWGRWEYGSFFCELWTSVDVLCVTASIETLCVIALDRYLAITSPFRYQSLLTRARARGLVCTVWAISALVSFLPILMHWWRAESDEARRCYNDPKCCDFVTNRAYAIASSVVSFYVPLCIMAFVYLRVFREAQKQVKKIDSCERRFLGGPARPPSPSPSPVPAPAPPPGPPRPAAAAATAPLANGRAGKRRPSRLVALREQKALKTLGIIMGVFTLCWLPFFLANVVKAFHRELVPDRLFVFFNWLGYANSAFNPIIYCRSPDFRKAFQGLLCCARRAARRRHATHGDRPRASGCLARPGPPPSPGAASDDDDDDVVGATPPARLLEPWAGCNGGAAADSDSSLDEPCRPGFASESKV

[7] = target: T5, 5-hydroxytryptamine receptor 1A (Homo sapiens, UniProt P08908); assay type: functional, cell-based
T5 sequence (P08908 whole entry): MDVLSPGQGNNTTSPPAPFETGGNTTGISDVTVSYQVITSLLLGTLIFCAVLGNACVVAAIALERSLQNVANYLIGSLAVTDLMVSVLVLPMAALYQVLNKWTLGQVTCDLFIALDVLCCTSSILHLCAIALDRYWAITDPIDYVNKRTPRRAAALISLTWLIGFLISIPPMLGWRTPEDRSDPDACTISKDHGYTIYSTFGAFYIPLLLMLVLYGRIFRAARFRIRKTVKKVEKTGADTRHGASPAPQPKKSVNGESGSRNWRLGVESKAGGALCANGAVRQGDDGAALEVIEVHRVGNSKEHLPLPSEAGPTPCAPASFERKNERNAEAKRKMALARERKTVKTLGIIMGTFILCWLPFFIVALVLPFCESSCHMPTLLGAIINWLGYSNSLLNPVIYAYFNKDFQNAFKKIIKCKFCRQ

Mu-type opioid receptor = Mu-type opioid receptor (Homo sapiens, UniProt P35372); experiment: biochemical; assay type: functional
Sequence of Mu-type opioid receptor (P35372 whole entry): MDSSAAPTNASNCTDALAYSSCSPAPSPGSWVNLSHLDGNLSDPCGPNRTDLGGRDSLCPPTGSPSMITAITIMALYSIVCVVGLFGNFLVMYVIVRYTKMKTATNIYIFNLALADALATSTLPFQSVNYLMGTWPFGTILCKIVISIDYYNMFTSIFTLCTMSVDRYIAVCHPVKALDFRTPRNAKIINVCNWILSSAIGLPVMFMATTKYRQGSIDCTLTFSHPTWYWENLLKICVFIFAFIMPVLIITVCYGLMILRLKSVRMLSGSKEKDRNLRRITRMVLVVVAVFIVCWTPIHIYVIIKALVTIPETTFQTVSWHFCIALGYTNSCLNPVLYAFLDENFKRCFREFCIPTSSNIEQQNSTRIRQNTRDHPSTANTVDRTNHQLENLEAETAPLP

D(1A) dopamine receptor [8] = target: T2, D(1A) dopamine receptor
Thromboxane A2 receptor = target: T6, Thromboxane A2 receptor (Homo sapiens, UniProt P21731)
T6 sequence (P21731 whole entry): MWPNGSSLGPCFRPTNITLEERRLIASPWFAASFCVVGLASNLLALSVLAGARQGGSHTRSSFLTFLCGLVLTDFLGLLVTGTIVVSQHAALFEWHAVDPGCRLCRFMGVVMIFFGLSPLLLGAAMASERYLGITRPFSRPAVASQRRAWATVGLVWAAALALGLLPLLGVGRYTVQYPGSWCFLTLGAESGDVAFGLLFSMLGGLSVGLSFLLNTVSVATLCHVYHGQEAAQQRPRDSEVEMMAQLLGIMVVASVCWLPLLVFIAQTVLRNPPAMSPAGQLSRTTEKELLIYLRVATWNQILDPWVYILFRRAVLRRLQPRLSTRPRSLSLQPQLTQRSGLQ
Also: assay procedure not described here.

In the case of `COc1ccccc1N1CCN(CC(O)COc2cccc3ccccc23)CC1` (stereo unspecified) [NAFTOPIDIL], the AC50 [1] is reported as > 30 µM, the AC50 [2] is reported as 2.2 µM and the AC50 (D(1A) dopamine receptor [3]) is reported as > 30 µM. For the same molecule, the AC50 (Histamine H1 receptor) was 0.75 µM, the AC50 [4] was > 30 µM and the AC50 [5] was > 30 µM. For the same molecule, the AC50 [6] was 1.1 µM, the AC50 [7] was 1.2 µM and the AC50 (Mu-type opioid receptor) was 26 µM. For the same molecule, the AC50 (D(1A) dopamine receptor [8]) was > 30 µM and the AC50 (Thromboxane A2 receptor) was > 30 µM.
